Marks after values point to notes of the source that are not given here.
Tests used:
[1] = Example 3 urinary pharmacokinetics, normal hepatic function vs hepatic impairment; format: in vivo, human; conditions: for Urine Recovery as % of Dose, Geomean / Urine Recovery as % of Dose, Mean: 0-32 h, single intranasal dose; for CLr Geomean / CLr Mean: Table 26
Procedure: Urine was collected prior to dosing and from 0-2, 2-4, 4-8, 8-12, 12-24, and 24-32 hours after beginning of dose application. […] Urinary pharmacokinetic parameters included total urinary recovery (μg), urinary recovery as a percentage of dose, and CLr.

[2] = Example 3 plasma pharmacokinetics, normal hepatic function vs hepatic impairment
[3] = Example 2 urinary pharmacokinetics, normal renal function vs severe renal impairment; conditions: single intranasal 160 mg cocaine HCl; for 0 to 32 hour urinary recovery (geometric mean) / 0 to 32 hour urinary recovery (mean) / 0 to 32 hour urinary recovery (median): metabolites as cocaine equivalents
Procedure: For the urine analysis of cocaine, BE, and EME, individual urinary recoveries for each analyte were determined over each collection interval as the product of the urine concentration times the urine volume. The total recoveries were determined as the sum of the recoveries over all the intervals. Total urinary recoveries were also expressed as the percentage of the administered dose, after correction for the molecular weight of each analyte. The renal clearances of cocaine, BE, and EME were determined as the urinary recovery (in μg) divided by the plasma AUC over the same time interval (the longest period for which both plasma and urine measurements were available).
Urine was collected prior to dosing and from 0-2, 2-4, 4-8, 8-12, 12-24, and 24-32 hours after the beginning of dose application. […] Testing methods used were consistent with those used by inVentiv Health Clinical Lab, Inc., Miami, Fla., U.S.A. Urinary pharmacokinetic parameters included total urinary recovery (μg), urinary recovery as a percentage of dose, and CLr.

[4] = normal hepatic function, single intranasal 160 mg cocaine HCl
[5] = subjects with hepatic impairment
[6] = subjects with hepatic impairment, 32 hours post administration
[7] = subjects with hepatic impairment, Table 30
[8] = subjects with normal hepatic function
[9] = normal hepatic function, single intranasal 160 mg cocaine HCl, plasma
[10] = plasma, subjects with hepatic impairment, single intranasal dose
[11] = severe renal impairment, listed as Ecgonine Methyl Ester

COC(=O)[C@@H]1[C@H]2CC[C@@H](C[C@@H]1O)N2C [EME, ecgonine methyl ester]
Urine Recovery as % of Dose, Geomean ([1]; Impaired hepatic function): 2.43 % of Dose
Urine Recovery as % of Dose, Mean ([1]; Impaired hepatic function): 3.51 % of Dose
CLr Geomean ([1]; Impaired hepatic function): 10.2 L/h
CLr Mean ([1]; Impaired hepatic function): 10.9 L/h
Urine Recovery as % of Dose, Geomean ([1]; Normal hepatic function): 0.93 % of Dose
Urine Recovery as % of Dose, Mean ([1]; Normal hepatic function): 1.12 % of Dose
CLr Geomean ([1]; Normal hepatic function): 14.6 L/h
CLr Mean ([1]; Normal hepatic function): 17.2^d L/h
0-32 h Urinary Recovery (geometric mean) [1, 4]: 875.2 µg
0-32 h Urinary Recovery (mean) [1, 4]: 1048.23 µg
0-32 h Urinary Recovery (median) [1, 4]: 1164.3 µg
Renal Clearance, geometric mean [1, 5]: 169.75 mL/min
Renal Clearance, mean [1, 5]: 181.23 mL/min
Renal Clearance, median [1, 5]: 160.92 mL/min
0-32 h Urinary Recovery (geometric mean) [1, 6]: 2278.1 µg
0-32 h Urinary Recovery (mean) [1, 6]: 3294 µg
0-32 h Urinary Recovery (median) [1, 6]: 2249.7 µg
Renal Clearance, geometric mean [1, 7]: 169.753 mL/min
Renal Clearance, mean [1, 7]: 181.233 mL/min
Renal Clearance, median [1, 7]: 160.92 mL/min
Renal Clearance, geometric mean [1, 8]: 243.011 mL/min
Renal Clearance, mean [1, 8]: 286.128 mL/min
Renal Clearance, median [1, 8]: 219.782 mL/min
AUClast, times higher than normal subjects ([2]; Grade B hepatic impairment): approximately 2.4 times
AUClast, times higher than normal subjects ([2]; Grade C hepatic impairment): 2.2 times
AUC0→t (Geometric mean) [2, 9]: 61.2 ng·h/mL
AUC0→t (Max) [2, 9]: 198 ng·h/mL
AUC0→t (Mean) [2, 9]: 72.9 ng·h/mL
AUC0→t (Median) [2, 9]: 59.1 ng·h/mL
AUC0→t (Min) [2, 9]: 24.5 ng·h/mL
AUC0→∞ (Geometric mean) [2, 9]: 76.1 ng·h/mL
AUC0→∞ (Max) [2, 9]: 212 ng·h/mL
AUC0→∞ (Mean) [2, 9]: 89.6 ng·h/mL
AUC0→∞ (Median) [2, 9]: 72.9 ng·h/mL
AUC0→∞ (Min) [2, 9]: 31.5 ng·h/mL
Clast (Geometric mean) [2, 9]: 1.67 ng/mL
Clast (Max) [2, 9]: 3.72 ng/mL
Clast (Mean) [2, 9]: 1.85 ng/mL
Clast (Median) [2, 9]: 1.60 ng/mL
Clast (Min) [2, 9]: 1.00 ng/mL
Cmax (Geometric mean) [2, 9]: 8.75 ng/mL
Cmax (Max) [2, 9]: 26.8 ng/mL
Cmax (Mean) [2, 9]: 10.0 ng/mL
Cmax (Median) [2, 9]: 7.81 ng/mL
Cmax (Min) [2, 9]: 3.83 ng/mL
Tlast (Geometric mean) [2, 9]: 15.4 h
Tlast (Max) [2, 9]: 28.0 h
Tlast (Mean) [2, 9]: 16.5 h
Tlast (Median) [2, 9]: 12.0 h
Tlast (Min) [2, 9]: 600 min
Tmax (Geometric mean) [2, 9]: 1.33 h
Tmax (Max) [2, 9]: 3.00 h
Tmax (Mean) [2, 9]: 1.45 h
Tmax (Median) [2, 9]: 1.25 h
Tmax (Min) [2, 9]: 30 min
t1/2 (Geometric mean) [2, 9]: 5.99 h
t1/2 (Max) [2, 9]: 9.97 h
t1/2 (Mean) [2, 9]: 6.27 h
t1/2 (Median) [2, 9]: 5.69 h
t1/2 (Min) [2, 9]: 250 min
AUC0→t (Geometric mean) [2, 10]: 146 ng·h/mL
AUC0→t (Mean) [2, 10]: 185 ng·h/mL
AUC0→t (Median) [2, 10]: 140 ng·h/mL
AUC0→∞ (Geometric mean) [2, 10]: 212 ng·h/mL
AUC0→∞ (Mean) [2, 10]: 233 ng·h/mL
AUC0→∞ (Median) [2, 10]: 185 ng·h/mL
Clast (Geometric mean) [2, 10]: 1.57 ng/mL
Clast (Mean) [2, 10]: 1.65 ng/mL
Clast (Median) [2, 10]: 1.67 ng/mL
Cmax (Geometric mean) [2, 10]: 11.3 ng/mL
Cmax (Mean) [2, 10]: 16.1 ng/mL
Cmax (Median) [2, 10]: 9.11 ng/mL
Tlast (Geometric mean) [2, 10]: 26.3 h
Tlast (Mean) [2, 10]: 27.7 h
Tlast (Median) [2, 10]: 32.0 h
Tmax (Geometric mean) [2, 10]: 2.90 h
Tmax (Mean) [2, 10]: 3.84 h
Tmax (Median) [2, 10]: 4.00 h
t1/2 (Geometric mean) [2, 10]: 8.67 h
t1/2 (Mean) [2, 10]: 9.26 h
t1/2 (Median) [2, 10]: 8.3 h
0-32 h Urinary Recovery (geometric mean) ([3]; normal renal function): 894.9 µg
0-32 h Urinary Recovery (mean) ([3]; normal renal function): 1095 µg
0-32 h Urinary Recovery (median) ([3]; normal renal function): 892.8 µg
Renal Clearance, CLr (geometric mean) ([3]; normal renal function): 18.1 L/h
Renal Clearance, CLr (mean) ([3]; normal renal function): 19.1 L/h
Renal Clearance, CLr (median) ([3]; normal renal function): 21.4 L/h
Renal Clearance, geometric mean ([3]; normal renal function): 302.2 mL/min
Renal Clearance, mean ([3]; normal renal function): 317.8 mL/min
Renal Clearance, median ([3]; normal renal function): 356.1 mL/min
0 to 32 hour urinary recovery (geometric mean) ([3]; normal renal function): 0.954 % of administered dose
0 to 32 hour urinary recovery (mean) ([3]; normal renal function): 1.17 % of administered dose
0 to 32 hour urinary recovery (median) ([3]; normal renal function): 0.952 % of administered dose
0 to 32 hour urinary recovery (mean) ([3]; normal renal function, listed as Ecgonine Methyl Ester): 1.167 % of administered dose
0-32 h Urinary Recovery (geometric mean) ([3]; severe renal impairment): 1177.8 µg
0-32 h Urinary Recovery (mean) ([3]; severe renal impairment): 1425 µg
0-32 h Urinary Recovery (median) ([3]; severe renal impairment): 1104 µg
Renal Clearance, CLr (geometric mean) ([3]; severe renal impairment): 4.23 L/h
Renal Clearance, CLr (mean) ([3]; severe renal impairment): 4.95 L/h
Renal Clearance, CLr (median) ([3]; severe renal impairment): 4.05 L/h
Renal Clearance, geometric mean ([3]; severe renal impairment): 70.6 mL/min
Renal Clearance, mean ([3]; severe renal impairment): 82.5 mL/min
Renal Clearance, median ([3]; severe renal impairment): 67.6 mL/min
0 to 32 hour urinary recovery (geometric mean) ([3]; severe renal impairment): 1.26 % of administered dose
0 to 32 hour urinary recovery (mean) ([3]; severe renal impairment): 1.52 % of administered dose
0 to 32 hour urinary recovery (median) ([3]; severe renal impairment): 1.177 % of administered dose
0 to 32 hour urinary recovery (geometric mean) [3, 11]: 1.255 % of administered dose
0 to 32 hour urinary recovery (mean) [3, 11]: 1.519 % of administered dose

Source: patent US10413505B1, “Pharmaceutical compositions and methods of using the same” (priority 2017, dated 2019)
